# System: human lung epithelial cell lines H292 and A549
# Assay: Activation of lung epithelial cells
# Type: cell-based
# Procedure: (2) Activation of Lung Epithelial Cells
# The ability of the cannabinoids to inhibit mucin, chemokine/cytokine production from lung epithelial cells is evaluated with human lung epithelial cell lines H292 and A549. Epithelial cells are cultured overnight in 48 well microtiter plates in complete RMPI […] (200 μl/well) at a density of 2×10^5 cells/ml. The media is removed and replaced with fresh media. Test compounds in 50 μl isotonic buffer are added and incubated for 1 hour at 37° C. Cell activation is triggered by the addition of a stimulatory agent comprising one of EGF, smoke conditioned media, TNF-α or IL-1β. In this assay, the IC50 for Win-55212-2<20 mcM. After a desired period of time (e.g., 24 h) the cell supernatants are removed and assayed for mucin cytokine and chemokines by ELISA. The cannabinoid agonists inhibit mucin and IL-8 production from lung epithelial cells.
smiles,measurement,setting,value
Cc1c(C(=O)c2cccc3ccccc23)c2cccc3c2n1[C@H](CN1CCOCC1)CO3 [Win-55212-2],activity in the lung epithelial cell assay,,demonstrated activity
same,IC50,"stimulated with EGF, smoke conditioned media, TNF-α or IL-1β, mucin, cytokine and chemokines by ELISA",< 20 µM
